# Measurements from article PMC10535535, “Imidazopyridine-Based Thiazole Derivatives as Potential Antidiabetic Agents: Synthesis, In Vitro Bioactivity, and In Silico Molecular Modeling Approach” (Pharmaceuticals, 2023).
# Molecular target: α-glucosidase
# Experiment: α-glucosidase inhibition assay (pNPG, spectrophotometric)
# Assay type: biochemical
# Details: in vitro, pNPG substrate, 37 °C, triplicate; read-out: IC50 ± SEM
# Experimental: With slight modification to an earlier technique, the α-glucosidase inhibition profiles of the synthesized scaffolds were assessed spectrophotometrically. Amounts of 10 μL of the sample, 120 μL of 100 mM potassium phosphate buffer, and […] of a 0.5 U/mL α-glucosidase solution (0.3 mM, in buffer) were combined for each chemical. […] Each combination was incubated at 37 °C for a separate period of 15 min. […] Once more, the mixture was incubated for 15 min at 37 °C. At that point, 80 μL of a 0.2 M sodium carbonate solution was administered to terminate the process. The mixture that included no enzymes also functioned as a blank sample. At 405 nm, the absorbance was finally calculated. To accurately measure the background absorbance, the blank sample, which replaced the substrate with 50 μL of the buffer, was examined. […] Assuming that A represents the absorbance of the control without test samples and B represents the absorbance with test samples present, the percentage of enzyme inhibition was computed as (1 B/A) 100. […] 4.4. Assay protocol for α-glucosidase inhibition The α-glucosidase inhibition profiles of synthesized scaffolds were determined spectrophotometrically, with some modifications to an earlier method. For each chemical, 10 μL of the sample, 120 μL of 100 mM potassium phosphate buffer, and 20 μL of 0.5 U/mL alpha-glucosidase solution was mixed (0.3 mM, in buffer). […] At 37 °C, each mixture was incubated for a separate 15 minutes. The enzymatic reaction was initiated by adding 20 μL of the substrate 4-nitrophenyl- D-α-glucopyranoside (pNPG) (5 mM) to the solution. The mixture was once more incubated at 37 °C for 15 minutes. To stop the process at that point, 80μL of sodium carbonate solution were injected (0.2 M). Additionally, the mixture without any enzymes served as a blank sample. The absorbance was finally determined at 405 nm. The blank sample, in which the substrate was swapped out for 50 μL of the buffer, was analyzed to properly quantify the background absorbance. […] The percentage of enzyme inhibition was calculated as (1 B/A) 100, assuming that A represents the absorbance of the control without test samples and B represents the absorbance with test samples present. The analyses were carried out in triplicate, and the results were presented as mean SD. 4.5. […] On the Discovery Studio R2 64-bit Client system, interactive molecular structure visualization and analysis were done. From the RCSB Protein Data Bank, the three-dimensional (3D) structure of α-glucosidase was retrieved (PDB). The chemical structures of the ligands were obtained from the Pub Chem compound database. Using Open Babel, the PDB files were converted into PDBQT files. For docking analysis, the PDB coordinates of the ligands and targets were optimized. Geometry optimization is carried out using Gaussian 09 (adding missing residues). […] Further details were summarized in our previous articles.
row,Compound,IC50 [µM]
1,Oc1ccc(-c2csc(N/N=C\c3cnc4ccc(F)cn34)n2)c(O)c1 [4p],10.5 ± 2.2
2,O=[N+]([O-])c1cc(Cl)ccc1-c1csc(N/N=C\c2cnc3ccc(F)cn23)n1 [4b],13.6 ± 1.67
3,O=[N+]([O-])c1ccc(C(F)(F)F)c(-c2csc(N/N=C\c3cnc4ccc(F)cn34)n2)c1 [4g],5.57 ± 3.45
4,"O=[N+]([O-])c1ccc(O)c(-c2csc(N/N=C\c3cnc4ccc(F)cn34)n2)c1 [4o, (Z)-2-(2-(2-((6-fluoroimidazo[1,2-a]pyridin-3-yl)methylene)hydrazineyl)thiazol-4-yl)-4-nitrophenol]",7.16 ± 1.4
5,Fc1ccc2ncc(/C=N\Nc3nc(-c4ccc(Cl)cc4Cl)cs3)n2c1 [4l],19.3 ± 2.58
6,COc1ccc(-c2csc(N/N=C\c3cnc4ccc(F)cn34)n2)c(OC)c1 [4m],56.3 ± 5.94
7,Cc1ccc(-c2csc(N/N=C\c3cnc4ccc(F)cn34)n2)c([N+](=O)[O-])c1 [4j],22.6 ± 3.55
8,COc1cc(C)ccc1-c1csc(N/N=C\c2cnc3ccc(F)cn23)n1 [4e],44.9 ± 5.27
9,O=[N+]([O-])c1cc(-c2csc(N/N=C\c3cnc4ccc(F)cn34)n2)cc(C(F)(F)F)c1 [4a],6.85 ± 2.18

# Further molecules by falling IC50, results first:
row,IC50 [µM],Compound
1,63.5 ± 5.28,Fc1ccc2ncc(/C=N\Nc3nc(-c4ccc(-c5ccccc5)cc4)cs3)n2c1 [4c]
2,61.4 ± 4.56,Cc1ccc(-c2ccc(-c3csc(N/N=C\c4cnc5ccc(F)cn45)n3)cc2)cc1 [4n]
3,51 ± 5.8,Cc1ccc(-c2csc(N/N=C\c3cnc4ccc(F)cn34)n2)c(C)c1 [4f]
4,43.2 ± 6.16,Cc1ccccc1-c1csc(N/N=C\c2cnc3ccc(F)cn23)n1 [4h]
5,34.9 ± 5.84,COc1cc(O)ccc1-c1csc(N/N=C\c2cnc3ccc(F)cn23)n1 [4i]
6,34.7 ± 5.23,Cc1cc(Cl)ccc1-c1csc(N/N=C\c2cnc3ccc(F)cn23)n1 [4k]
7,32.1 ± 4.29,CN(C)c1ccc(-c2csc(N/N=C\c3cnc4ccc(F)cn34)n2)cc1 [4d]

# Same assay, conditions: unit not given; in µM
row,IC50,Compound
1,34.91 ± 5.84,COc1cc(O)ccc1-c1csc(N/N=C\c2cnc3ccc(F)cn23)n1 [4i]

# Same assay, conditions: versus acarbose
row,potency as compared to the standard drug,Compound
1,two-fold more potency,Fc1ccc2ncc(/C=N\Nc3nc(-c4ccc(Cl)cc4Cl)cs3)n2c1 [4l]
2,two-fold more potency,Cc1ccc(-c2csc(N/N=C\c3cnc4ccc(F)cn34)n2)c([N+](=O)[O-])c1 [4j]
